In US20100286262A1, “PTGS2 HAPLOTYPES” (priority 2007, published 2010):

Experiments:
[1] = tested on: colorectal cancer patients (stage II/III) after potentially curative therapy; assay: VICTOR trial: safety (serious adverse events, early discontinuations), treated population; assay type: in vivo
Experimental: (§1) This was a phase III randomised, placebo-controlled double-blind trial of R in patients after potentially-curative surgery and completion of adjuvant therapy for stage II/III CRC. 7000 patients were planned to receive 25 mg R daily or an identical placebo (P) for 2 or 5 years, however the trial was terminated early after the worldwide withdrawal of R. A revised protocol and statistical analysis plan permitted detection of a reduction (HR=0.75) in risk of death with 87% power, with one pre-planned event-driven interim analysis.
(§2) Data-collection forms were amended to solicit baseline data on cardiovascular risk factors, for all patients After worldwide withdrawal of rofecoxib all investigators and patients were informed, study treatment was stopped, and follow-up continued, at 3, 6, 12, 18 and 24 months after randomisation and annually thereafter. Patients received a colonoscopy 1-2 years after primary surgery and 2- to 3-yearly thereafter; a CT scan about 1 year after surgery; clinical examination and routine blood tests at outpatient visits. All recurrences were confirmed by CT or MRI scan and patients were flagged for survival with the UK's Office of National Statistics. Adverse event data were recorded systematically throughout the study and were reviewed by the trials team (RM, DJK and MJL) to clarify diagnoses.
The original study was powered to detect a reduction in risk of death between treatments for stage II and stage III separately, (hazard ratio 0.80), with type I error 0.05. The modified statistical plan, after premature closure with 2434 patients, permitted detection of a reduction in risk of death of HR 0.75, 87% power, with type I error 0.05, and one interim analysis specified according to an O'Brien-Fleming alpha-spending rule when there were 350 events. The threshold for statistical significance for OS at this analysis is p<0.01325. OS, the primary endpoint, was measured from randomisation to death from any cause. Secondary endpoints include DFS, measured from randomisation to recurrence or death from any cause and recurrence-free survival, measured from randomisation to recurrence and/or colorectal cancer death. This is the report of the interim analysis, with 368 deaths. Kaplan-Meier curves and log-rank analysis were used for comparisons of OS and DFS. Subgroups were examined using HR plots. Hazard ratios and their confidence intervals were calculated from log-rank statistics and variances. Cox's proportional hazards models were used to estimate the treatment effect adjusted by prognostic factors. All reported p-values are two-sided. For analysis of OS, patients not reported as dead were censored at their last known date alive. For analysis of DFS, patients who were alive and recurrence-free were censored at their last known recurrence-free date. For analysis of DFS in first year after randomisation, patients who were alive and recurrence-free at one year were censored at that time. Numbers of SAEs were compared using a normal approximation to the Poisson distribution.
Serious Adverse Events (SAEs) were collected for each patient from enrolment until the data lock of November 2007. Cardiovascular thrombotic events have previously been reported in detail. In summary, of 23 confirmed cardiovascular thrombotic events that occurred within the treatment period or within 14 days after cessation, 16 occurred in the R arm and 7 in the P arm with an estimated relative risk of 2.66 (95% confidence intervals (CI) 1.03-6.86; p=0.04). These included fatal and nonfatal myocardial infarction, unstable angina, sudden death from cardiac causes, fatal and nonfatal ischemic stroke, transient ischemic attack, peripheral arterial thrombosis, peripheral venous thrombosis, and pulmonary embolism. Fourteen more cardiovascular thrombotic events, six in the R arm and eight in the P arm, were reported within the two years after the trial closure, with an overall total period unadjusted relative risk of 1.50 (95% CI 0.76-2.94; p=0.24). […]

[2] = tested on: colorectal cancer patients (stage II/III) after potentially curative therapy; assay: VICTOR phase III randomised placebo-controlled trial of rofecoxib: overall survival; assay type: in vivo, human
Experimental: as §1
Patients were randomly assigned to receive R or P at 151 hospitals in the United Kingdom. Inclusion criteria included: histologically proven stage II and III colorectal carcinoma in patients who had undergone complete resection of the primary tumour; WHO Performance Status 0 or 1; haematological, liver and renal function within the normal range. All patients had completed potentially curative therapy (surgery+/−radiotherapy+/−chemotherapy) 12 or fewer weeks previously and had given written informed consent. Patients with active peptic ulceration or gastrointestinal bleeding in the past year, a history of adverse reactions to NSAIDs, or a known sensitivity to R were excluded, as were those receiving long-term NSAID therapy (except for low-dose aspirin, <100 mg per day), those younger than 18 years, and women who were pregnant, lactating, or premenopausal but not using contraception. Patients with a history of cancer (other than adequately treated in situ carcinoma of the cervix, basal or squamous-cell carcinoma), inflammatory bowel disease, or severe congestive heart failure were also excluded.
It was planned to randomly allocate R (one 25-mg tablet daily) or identical P to 7000 patients, with half of each group receiving the study drug for 2 or 5 years. Suitable patients were randomly assigned in a double blind fashion to R or P through the VICTOR Trial Office, which supplied drugs to participating hospitals every 6 months. Minimisation was used to balance allocations by stage (II, III), disease site (colon, rectum, recto-sigmoid), age (<50, 50-59, 60-69, 70+) prior adjuvant chemotherapy and radiotherapy.
as §2
The original study was powered to detect a reduction in risk of death between treatments for stage II and stage III separately, (hazard ratio 0.80), with type I error 0.05. The modified statistical plan, after premature closure with 2434 patients, permitted detection of a reduction in risk of death of HR 0.75, 87% power, with type I error 0.05, and one interim analysis specified according to an O'Brien-Fleming alpha-spending rule when there were 350 events. The threshold for statistical significance for OS at this analysis is p<0.01325. OS, the primary endpoint, was measured from randomisation to death from any cause. Secondary endpoints include DFS, measured from randomisation to recurrence or death from any cause and recurrence-free survival, measured from randomisation to recurrence and/or colorectal cancer death. This is the report of the interim analysis, with 368 deaths. Kaplan-Meier curves and log-rank analysis were used for comparisons of OS and DFS. Subgroups were examined using HR plots. […]

SMILES: CS(=O)(=O)c1ccc(C2=C(c3ccccc3)C(=O)OC2)cc1 [rofecoxib, 3-phenyl-4-(4(methylsulfonyl)phenyl)-2-(5H)-furanone]
- Early discontinuation of study drug for hypertension (patients) ([1]; 1 in P): 7
- Early discontinuation of study drug for renal impairment (patients) ([1]; 1 in P): 7
- SAE: cardiac failure of unknown aetiology (patients) ([1]; 1 in P): 4
- SAE: stable angina (patients) ([1]; 2 in P): 5
- SAE: various infections (patients) ([1]; 3 in P, p=0.05): 10
- Early discontinuation of study drug for diarrhea (patients) ([1]; 4 in P): 4
- SAE: cardiac arrhythmias (patients) ([1]; 4 in P): 3
- Early discontinuation of study drug for gastrointestinal pain or heartburn (patients) ([1]; 5 in P): 15
- Early discontinuation of study drug for analgesia required for arthritis (patients) ([1]; 15 in P): 4
- Overall total period unadjusted relative risk of cardiovascular thrombotic events ([1]; 95% CI 0.76-2.94, p=0.24): 1.50
- Early discontinuation of study drug for heart failure (patients) ([1]; in vivo): 2
- Enhanced cardiovascular adverse event profile ([1]; in vivo): 1-2%
- Other SAEs (depression, neuralgia, polymyositis, epilepsy), frequency ([1]; in vivo): less than 0.2%
- SAE: hypertension (patients) ([1]; in vivo): 2
- Gastro-intestinal SAEs (indigestion/gastroduodenal ulceration, diarrhoea, constipation, obstruction), frequency in patients ([1]; no significant difference comparing R and P): less than 1%
- All-cause SAEs (in words) ([1]; p=0.05): there was an association with R administration
- Estimated relative risk of cardiovascular thrombotic events ([1]; treatment period or within 14 days after cessation, 95% CI 1.03-6.86, p=0.04): 2.66
- Confirmed cardiovascular thrombotic events ([1]; within the treatment period or within 14 days after cessation, 7 in P arm): 16
- Further cardiovascular thrombotic events ([1]; within the two years after the trial closure, eight in P arm): six
- Number of patients still at risk (overall survival, FIG. 5) ([2]; 0 years from randomisation): 1217
- Hazard ratio (HR) for dying from any cause (overall survival), R compared with P ([2]; 25 mg daily, intention-to-treat, 1217 vs 1217, 95% CI 0.77 to 1.16, P=0.57): 0.94
- Number of patients still at risk (overall survival, FIG. 5) ([2]; 1 year from randomisation): 1152
- Number of patients still at risk (overall survival, FIG. 5) ([2]; 2 years from randomisation): 1012
- Number of patients still at risk (overall survival, FIG. 5) ([2]; 3 years from randomisation): 663
- Number of patients still at risk (overall survival, FIG. 5) ([2]; 4 years from randomisation): 219
- Number of patients still at risk (overall survival, FIG. 5) ([2]; 5 years from randomisation): 21
- Number of deaths without recurrent disease ([2]; 14 in P group): 15
- 3-year Kaplan-Meier OS rate ([2]; 95% CI 85.7 to 89.6, P group 86.6): 87.6%
- HR for colorectal cancer-specific mortality ([2]; R vs P, 95% CI 0.75-1.15, p=0.50): 0.93
- Patient deaths with no reported cause ([2]; each group): Five
- Number of deaths ([2]; over the study period, 191 in placebo group): 177
- HR for dying adjusted for stage, age, radiotherapy group and aspirin use at baseline ([2]; proportional hazards analysis, 95% CI 0.78-1.17, p=0.64): 0.95
